Patent publication US20190374533A1, “COMPOUNDS AND METHODS FOR INHIBITING NHE-MEDIATED ANTIPORT IN THE TREATMENT OF DISORDERS ASSOCIATED WITH FLUID RETENTION OR SALT OVERLOAD AND GASTROINTESTINAL TRACT DISORDERS” (Ardelyx, Inc., priority 2008, published 2019)

Test system: not listed separately
Experiment: Determination of compound Cmax and AUC
Type: in vivo
Conditions: rat; Sprague-Dawley rats, oral gavage, serum 0.5-4 h; actual oral dose (mg/kg) given
In short: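 Sprague-Dawley rats dosed orally by gavage at 2.5 mg/kg; serum sampled at 0.5, 1, 2 and 4 h. Acetonitrile protein precipitation, then LC/MS/MS quantitation against a standard curve.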

Row | AUC [ng·h/mL] | Cmax [ng/mL] | Structure (SMILES)
1 | 53 | 21 | CN1Cc2c(Cl)cc(Cl)cc2C(c2cccc(S(=O)(=O)NCCP(=O)(O)O)c2)C1 (stereo not drawn) [Example 1, 2-(3-(6,8-dichloro-2-methyl-1,2,3,4-tetrahydroisoquinolin-4-yl)phenylsulfonamido)ethylphosphonic acid]

Test system: not listed separately
Experiment: Parallel artificial membrane permeability assay (PAMPA)
Conditions: pH 7.4

Row | Papp A→B at 3 h, 20 uM [×10⁻⁶ cm/s] | Structure (SMILES)
2 | 1.3 | C/C(=C\c1cc(F)c(Oc2ccc(S(=O)(=O)NCCCP(=O)(O)O)cc2)c(F)c1)C(=O)N=C(N)N [Example 54, (E)-3-(4-(4-(3-(diaminomethyleneamino)-2-methyl-3-oxoprop-1-enyl)-2,6-difluorophenoxy)phenylsulfonamido)propylphosphonic acid]
3 | 0.99 | N=C(N)N1CCN(c2cccc(-c3nc(N=C(N)N)nc4ccc(Cl)cc34)c2)CC1 [Example 60, 4-(3-(6-chloro-2-(diaminomethyleneamino)quinazolin-4-yl)phenyl)piperazine-1-carboximidamide]
4 | 0.1 | C/C(=C\c1cc(F)c(Oc2ccc(S(=O)(=O)NC(CC(=O)O)C(=O)O)cc2)c(F)c1)C(=O)N=C(N)N (stereo not drawn) [Example 59, (E)-2-(4-(4-(3-(diaminomethyleneamino)-2-methyl-3-oxoprop-1-enyl)-2,6-difluorophenoxy)phenylsulfonamido)succinic acid]
5 | 0.4 | NC(N)=Nc1nc(-c2cccc(N3CCN(CCCC(=O)O)CC3)c2)c2cc(Cl)ccc2n1 [Example 70, 4-(4-(3-(6-chloro-2-(diaminomethyleneamino)quinazolin-4-yl)phenyl)piperazin-1-yl)butanoic acid]
6 | 0.9 | C/C(=C\c1cc(F)c(Oc2ccc(S(=O)(=O)NCCOCCOCCOCCn3cc(CO)nn3)cc2)c(F)c1)C(=O)N=C(N)N [Example 48, (E)-N-(diaminomethylene)-3-(3,5-difluoro-4-(4-(N-(2-(2-(2-(2-(4-(hydroxymethyl)-1H-1,2,3-triazol-1-yl)ethoxy)ethoxy)ethoxy)ethyl)sulfamoyl)phenoxy)phenyl)-2-methylacrylamide]
7 | 0.2 | COCCNC(=O)NS(=O)(=O)c1ccc(Oc2c(F)cc(/C=C(\C)C(=O)N=C(N)N)cc2F)cc1 [Example 58, (E)-N-(diaminomethylene)-3-(3,5-difluoro-4-(4-(N-(2-methoxyethylcarbamoyl)sulfamoyl)phenoxy)phenyl)-2-methylacrylamide]
8 | 1.65 | C/C(=C\c1cc(F)c(Oc2ccc(S(=O)(=O)N(CC(=O)O)CP(=O)(O)O)cc2)c(F)c1)C(=O)N=C(N)N [Example 57, (E)-2-(4-(4-(3-(diaminomethyleneamino)-2-methyl-3-oxoprop-1-enyl)-2,6-difluorophenoxy)-N-(phosphonomethyl)phenylsulfonamido)acetic acid]
9 | 0.45 | C/C(=C\c1cc(F)c(Oc2ccc(S(=O)(=O)NCCCS(=O)(=O)O)cc2)c(F)c1)C(=O)N=C(N)N [Example 71, (E)-3-(4-(4-(3-(diaminomethyleneamino)-2-methyl-3-oxoprop-1-enyl)-2,6-difluorophenoxy)phenylsulfonamido)propane-1-sulfonic acid]
10 | 0.1 | NC(N)=Nc1nc(-c2ccc(N3CCN(CC(=O)O)CC3)cc2)c2cc(Cl)ccc2n1 [Example 61, 2-(4-(4-(6-chloro-2-(diaminomethyleneamino)quinazolin-4-yl)phenyl)piperazin-1-yl)acetic acid]
11 | 0.27 | NC(N)=Nc1nc(-c2ccc(N3CCN(CCCC(=O)O)CC3)cc2)c2cc(Cl)ccc2n1 [Example 73, 4-(4-(4-(6-chloro-2-(diaminomethyleneamino)quinazolin-4-yl)phenyl)piperazin-1-yl)butanoic acid]
12 | 0.45 | CCNC(=O)NS(=O)(=O)c1ccc(Oc2c(F)cc(/C=C(\C)C(=O)N=C(N)N)cc2F)cc1 [Example 74]
13 | 0.2 | CN1Cc2c(Cl)cc(Cl)cc2C(c2ccc(S(=O)(=O)Nc3ccc(P(=O)(O)O)cc3)cc2)C1 (stereo not drawn) [Example 76, 4-(4-(6,8-dichloro-2-methyl-1,2,3,4-tetrahydroisoquinolin-4-yl)phenylsulfonamido)phenylphosphonic acid]

The remaining lines, values behind:

Row | Structure (SMILES) | Papp A→B at 3 h, 20 uM [×10⁻⁶ cm/s]
14 | CN1Cc2c(Cl)cc(Cl)cc2C(c2cccc(NC(=O)N[C@@H](CC(=O)O)C(=O)O)c2)C1 (stereo partly drawn) [Example 35, (2S)-2-(3-(3-(6,8-dichloro-2-methyl-1,2,3,4-tetrahydroisoquinolin-4-yl)phenyl)ureido)succinic acid] | 0.17
15 | CN1Cc2c(Cl)cc(Cl)cc2C(c2cccc(S(=O)(=O)N(CC(=O)O)CP(=O)(O)O)c2)C1 (stereo not drawn) [Example 8, 2-(3-(6,8-dichloro-2-methyl-1,2,3,4-tetrahydroisoquinolin-4-yl)-N-(phosphonomethyl)phenylsulfonamido)acetic acid] | 0.2
16 | CN1Cc2c(Cl)cc(Cl)cc2C(c2cccc(S(=O)(=O)NCCCS(=O)(=O)O)c2)C1 (stereo not drawn) [Example 7, 3-(3-(6,8-dichloro-2-methyl-1,2,3,4-tetrahydroisoquinolin-4-yl)phenylsulfonamido)propane-1-sulfonic acid] | 0.5
17 | CN1Cc2c(Cl)cc(Cl)cc2C(c2ccc(S(=O)(=O)Nc3ccc(CP(=O)(O)O)cc3)cc2)C1 (stereo not drawn) [Example 13, (4-(4-(6,8-dichloro-2-methyl-1,2,3,4-tetrahydroisoquinolin-4-yl)phenylsulfonamido)phenyl)methylphosphonic acid] | 0.3
18 | CN1Cc2c(Cl)cc(Cl)cc2C(c2ccc(NC(=O)NCP(=O)(O)O)cc2)C1 (stereo not drawn) [Example 38, (3-(4-(6,8-dichloro-2-methyl-1,2,3,4-tetrahydroisoquinolin-4-yl)phenyl)ureido)methylphosphonic acid] | 0.1
19 | CN1Cc2c(Cl)cc(Cl)cc2C(c2ccc(S(=O)(=O)N(CCC(=O)O)CCC(=O)O)cc2)C1 (stereo not drawn) [Example 15, 3,3′-(4-(6,8-dichloro-2-methyl-1,2,3,4-tetrahydroisoquinolin-4-yl)phenylsulfonylazanediyl)dipropanoic acid] | 0.05
20 | CN1Cc2c(Cl)cc(Cl)cc2C(c2cccc(NC(=O)N[C@@H](CCC(=O)O)C(=O)O)c2)C1 (stereo partly drawn) [Example 37, (2S)-2-(3-(3-(6,8-dichloro-2-methyl-1,2,3,4-tetrahydroisoquinolin-4-yl)phenyl)ureido)pentanedioic acid] | 0.1
21 | CN1Cc2c(Cl)cc(Cl)cc2C(c2cccc(S(=O)(=O)NCCP(=O)(O)O)c2)C1 (stereo not drawn) [Example 1, 2-(3-(6,8-dichloro-2-methyl-1,2,3,4-tetrahydroisoquinolin-4-yl)phenylsulfonamido)ethylphosphonic acid] | 0.53
22 | C/C(=C\c1cc(F)c(Oc2ccc(S(=O)(=O)NCCOCCOCCOCCNS(=O)(=O)c3ccc(Oc4c(F)cc(/C=C(\C)C(=O)N=C(N)N)cc4F)cc3)cc2)c(F)c1)C(=O)N=C(N)N [Example 44, N,N′-(2,2′-(2,2′-oxybis(ethane-2,1-diyl)bis(oxy))bis(ethane-2,1-diyl))bis[(E)-N-(diaminomethylene)-3-(3,5-difluoro-4-(4-sulfamoylphenoxy)phenyl)-2-methylacrylamide]] | 0.1
23 | CN1Cc2c(Cl)cc(Cl)cc2C(c2ccc(NC(=O)N[C@@H](CC(=O)O)C(=O)O)cc2)C1 (stereo partly drawn) [Example 34, (2S)-2-(3-(4-(6,8-dichloro-2-methyl-1,2,3,4-tetrahydroisoquinolin-4-yl)phenyl)ureido)succinic acid] | 0.2
24 | CN1Cc2c(Cl)cc(Cl)cc2C(c2ccc(S(=O)(=O)NCCN(CCNS(=O)(=O)c3ccc(C4CN(C)Cc5c(Cl)cc(Cl)cc54)cc3)CCNS(=O)(=O)c3ccc(C4CN(C)Cc5c(Cl)cc(Cl)cc54)cc3)cc2)C1 (stereo not drawn) [Example 24, N,N′,N″-(2,2′,2″-nitrilotris(ethane-2,1-diyl))tris(4-(6,8-dichloro-2-methyl-1,2,3,4-tetrahydroisoquinolin-4-yl)benzenesulfonamide)] | 0.03
25 | CN1Cc2c(Cl)cc(Cl)cc2C(c2ccc(S(=O)(=O)NCc3ccc(CP(=O)(O)O)cc3)cc2)C1 (stereo not drawn) [Example 14, (4-((4-(6,8-dichloro-2-methyl-1,2,3,4-tetrahydroisoquinolin-4-yl)phenylsulfonamido)methyl)phenyl) methylphosphonic acid] | 0.4
26 | CN1Cc2c(Cl)cc(Cl)cc2C(c2ccc(S(=O)(=O)NCCCCCCCCCCCCNS(=O)(=O)c3ccc(C4CN(C)Cc5c(Cl)cc(Cl)cc54)cc3)cc2)C1 (stereo not drawn) [Example 23, N,N′-(dodecane-1,12-diyl)bis(4-(6,8-dichloro-2-methyl-1,2,3,4-tetrahydroisoquinolin-4-yl)benzenesulfonamide)] | < 0.04
27 | CN1Cc2c(Cl)cc(Cl)cc2C(c2cccc(S(=O)(=O)Nc3ccc(CP(=O)(O)O)cc3)c2)C1 (stereo not drawn) [Example 3, 4-(3-(6,8-dichloro-2-methyl-1,2,3,4-tetrahydroisoquinolin-4-yl)phenylsulfonamido)benzylphosphonic acid] | 0.8
28 | CN1Cc2c(Cl)cc(Cl)cc2C(c2ccc(S(=O)(=O)NCc3ccc(CNS(=O)(=O)c4ccc(C5CN(C)Cc6c(Cl)cc(Cl)cc65)cc4)cc3)cc2)C1 (stereo not drawn) [Example 26, N,N′-(1,4-phenylenebis(methylene))bis(4-(6,8-dichloro-2-methyl-1,2,3,4-tetrahydroisoquinolin-4-yl)benzenesulfonamide)] | < 0.02
29 | CN1Cc2c(Cl)cc(Cl)cc2C(c2ccc(S(=O)(=O)NCCOCCOCCNS(=O)(=O)c3ccc(C4CN(C)Cc5c(Cl)cc(Cl)cc54)cc3)cc2)C1 (stereo not drawn) [Example 27, N,N′-(2,2′-(ethane-1,2-diylbis(oxy))bis(ethane-2,1-diyl))bis(4-(6,8-dichloro-2-methyl-1,2,3,4-tetrahydroisoquinolin-4-yl)benzenesulfonamide)] | < 0.02
30 | CN1Cc2c(Cl)cc(Cl)cc2C(c2ccc(NC(=O)N[C@@H](CCC(=O)O)C(=O)O)cc2)C1 (stereo partly drawn) [Example 36] | 0.2

Molecular target: T1, rat NHE-3 (Rattus norvegicus, UniProt P26433)
T1 construct: expressed in transfected cells; host or cells: Opossum kidney (OK) cells (ATCC), electroporated
Experiment: Cell-based assay of NHE-3 activity (Pharmacological Test Example 1)
Conditions: OK cells expressing rat NHE-3; 0-30 uM test compound, 5 uM EIPA
In short: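 OK cells electroporated with rat NHE-3, loaded with 5 uM BCECF-AM in NH4Cl-HEPES (pH 7.4) for 30 min at room temperature, then acid-loaded 10 min in Na+-free choline buffer. Na+-dependent H+ antiport read as initial rate of pH-dye change; pIC50 from 3-6 replicate averages.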

T1 sequence (P26433 29-831): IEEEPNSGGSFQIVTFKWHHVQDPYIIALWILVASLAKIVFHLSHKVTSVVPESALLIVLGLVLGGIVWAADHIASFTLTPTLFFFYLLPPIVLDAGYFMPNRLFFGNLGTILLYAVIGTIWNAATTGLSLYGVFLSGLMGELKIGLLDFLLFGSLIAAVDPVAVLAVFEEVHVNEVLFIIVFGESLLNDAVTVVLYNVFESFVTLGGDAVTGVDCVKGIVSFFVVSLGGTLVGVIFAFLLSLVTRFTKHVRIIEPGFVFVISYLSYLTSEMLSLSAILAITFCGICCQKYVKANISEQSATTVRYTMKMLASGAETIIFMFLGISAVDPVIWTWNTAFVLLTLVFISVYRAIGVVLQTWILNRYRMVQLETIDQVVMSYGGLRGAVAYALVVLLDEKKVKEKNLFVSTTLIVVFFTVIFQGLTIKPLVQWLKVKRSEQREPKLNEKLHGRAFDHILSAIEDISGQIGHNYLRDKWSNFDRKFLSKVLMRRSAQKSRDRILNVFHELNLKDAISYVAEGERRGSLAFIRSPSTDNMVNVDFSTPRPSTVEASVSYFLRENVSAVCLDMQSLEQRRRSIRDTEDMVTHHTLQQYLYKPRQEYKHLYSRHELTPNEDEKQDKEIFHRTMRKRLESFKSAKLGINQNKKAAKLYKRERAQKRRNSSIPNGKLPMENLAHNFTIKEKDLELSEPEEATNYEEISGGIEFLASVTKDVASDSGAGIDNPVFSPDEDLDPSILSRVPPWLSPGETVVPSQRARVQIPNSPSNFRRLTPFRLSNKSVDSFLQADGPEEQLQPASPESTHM

Row | rat NHE-3 Average pIC50 | Structure (SMILES)
31 | 5 to 6 | C/C(=C\c1cc(F)c(Oc2ccc(S(=O)(=O)NCCCP(=O)(O)O)cc2)c(F)c1)C(=O)N=C(N)N [Example 54, (E)-3-(4-(4-(3-(diaminomethyleneamino)-2-methyl-3-oxoprop-1-enyl)-2,6-difluorophenoxy)phenylsulfonamido)propylphosphonic acid]
32 | 6 to 7 | N=C(N)N1CCN(c2cccc(-c3nc(N=C(N)N)nc4ccc(Cl)cc34)c2)CC1 [Example 60, 4-(3-(6-chloro-2-(diaminomethyleneamino)quinazolin-4-yl)phenyl)piperazine-1-carboximidamide]
